Data set [1] in a line: solubility and stability of IF7 (dosage form observations). The format is physicochemical. How it is done:
That is, IF7 peptide is protease sensitive and is susceptible to degradation. Indeed, in an experiment including intravenous administration of A488-IF7 to healthy mouse, the fluorescence signal of peripheral blood almost disappeared in about 1 hour (FIG. 5). […] In addition, IF7 has high hydrophobicity and causes difficulty in dosage form such as the need for addition of a surfactant after dissolution in DMSO, in an attempt to avoid precipitation when a compound bound with an anticancer drug is intravenously administered.

For data set [2], the target named is T1, Anxa1 (Homo sapiens, UniProt P04083).
T1 construct: human recombinant Anxa1 protein consisting of 346 amino acid residues; purchased ATGen Corporation (Seongnam-si, South Korea)
T1 sequence (P04083 1-346): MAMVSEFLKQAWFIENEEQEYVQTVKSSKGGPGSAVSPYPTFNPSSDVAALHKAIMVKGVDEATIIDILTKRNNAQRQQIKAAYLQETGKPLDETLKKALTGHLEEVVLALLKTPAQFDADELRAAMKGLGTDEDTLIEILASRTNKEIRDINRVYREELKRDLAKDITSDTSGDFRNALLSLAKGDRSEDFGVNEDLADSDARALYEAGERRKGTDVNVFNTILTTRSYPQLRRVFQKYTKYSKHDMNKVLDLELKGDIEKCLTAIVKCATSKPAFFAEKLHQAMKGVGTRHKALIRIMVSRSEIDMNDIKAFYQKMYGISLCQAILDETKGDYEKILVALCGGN
As to the kind of experiment: intermolecular interaction with Anxa1 measured by the QCM method. Type of data set: binding. How it is done:
As for the peptides of the sequences of LRFPTVL (SEQ ID NO: 13), SPTSLLF (SEQ ID NO: 14), MPTLTFR (SEQ ID NO: 15) and LLSWPSA (SEQ ID NO: 17) with high emergence frequency besides the TIT7 sequence (SEQ ID NO: 12) described in Example 1, similar to the dTIT7 peptide, peptides (dLRF7, dSPT7, dMPT7 and dLLS7 peptides) composed of D-form amino acids were synthesized and the intermolecular interaction with Anxa1 was measured for each of them by the following method.
The sensor chip was washed twice with piranha solution for 5 min and then immersed overnight in a solution of 0.9 mM hydroxy-EG3-undecanethiol (Dojindo) and 0.1 mM amino-EG6-undecanethiol (Dojindo). After washing with water, the chip was treated with 1 mM GMBS (Dojindo) and incubated at room temperature for 1 hr. After washing away the remaining GMBS, 1 mM peptide solution was added onto the chip and the chip was incubated for 30 min. The peptide-bound sensor chip was placed in a QCM apparatus (Single-Q, ASONE), and 0.5 ml of PBS was added to the well. Various doses of Anxa1 were injected into the reaction chamber and the binding affinity (kd value) for each peptide was determined.

Where [3] appears, read: QCM, peptide-bound sensor chip, various doses of Anxa1, read-out: kd value.

SMILES strings stand for the structures. Like-named read-outs stand apart in the source and are kept apart here. Square brackets hold non-standard residues; d marks the D form. Peptide text beside a SMILES is read from it.

What is called Kd is a measure of binding affinity in units of concentration.

As for `CC[C@H](C)[C@H](N)C(=O)N[C@@H](Cc1ccccc1)C(=O)N[C@@H](CC(C)C)C(=O)N[C@@H](CC(C)C)C(=O)N[C@@H](Cc1c[nH]c2ccccc12)C(=O)N[C@@H](CCC(N)=O)C(=O)N[C@@H](CCCNC(=N)N)C(=O)O` [IF7, IFLLWQR] (H-IFLLWQR-OH; N-terminus and C-terminus assumed), the solubility result in data set [1] is listed as “poor solubility”. The stability result in data set [1] (protease sensitivity) is recorded as “low stability”.

Turning to `CC(C)C[C@@H](N)C(=O)N[C@H](CC(C)C)C(=O)N[C@H](CO)C(=O)N[C@H](Cc1c[nH]c2ccccc12)C(=O)N1CCC[C@@H]1C(=O)N[C@H](CO)C(=O)N[C@H](C)C(=O)O` [dLLS7, L[D] L[D] S[D] W[D] P[D] S[D] A[D]] (H-[dL][dL][dS][dW][dP][dS][dA]-OH; N-terminus and C-terminus assumed), in data set [2] (setting [3]), the Kd was 54.2 nM.

As to `CC(C)C[C@@H](N)C(=O)N[C@H](CCCNC(=N)N)C(=O)N[C@H](Cc1ccccc1)C(=O)N1CCC[C@@H]1C(=O)N[C@@H](C(=O)N[C@@H](C(=O)N[C@H](CC(C)C)C(=O)O)C(C)C)[C@H](C)O` [dLRF7, L[D] R[D] F[D] P[D] T[D] V[D] L[D]] (H-[dL][dR][dF][dP][dT][dV][dL]-OH; N-terminus and C-terminus assumed), the Kd in data set [2] (setting [3]) was determined as 31.2 nM.

Take `CSCC[C@@H](N)C(=O)N1CCC[C@@H]1C(=O)N[C@@H](C(=O)N[C@H](CC(C)C)C(=O)N[C@@H](C(=O)N[C@H](Cc1ccccc1)C(=O)N[C@H](CCCNC(=N)N)C(=O)O)[C@H](C)O)[C@H](C)O` [dMPT7, M[D] P[D] T[D] L[D] T[D] F[D] R[D]] (H-[dM][dP][dT][dL][dT][dF][dR]-OH; N-terminus and C-terminus assumed): the Kd in data set [2] (setting [3]) worked out at 298 nM.

Turning to `CC(C)C[C@@H](NC(=O)[C@@H](CC(C)C)NC(=O)[C@@H](CO)NC(=O)[C@H](NC(=O)[C@H]1CCCN1C(=O)[C@H](N)CO)[C@H](C)O)C(=O)N[C@H](Cc1ccccc1)C(=O)O` [dSPT7, S[D] P[D] T[D] S[D] L[D] L[D] F[D]] (H-[dS][dP][dT][dS][dL][dL][dF]-OH; N-terminus and C-terminus assumed), the Kd in data set [2] (setting [3]) was found to be 90.3 nM.

Take `CC[C@@H](C)[C@@H](NC(=O)[C@H](N)[C@H](C)O)C(=O)N[C@@H](C(=O)N[C@H](Cc1c[nH]c2ccccc12)C(=O)N1CCC[C@@H]1C(=O)N[C@@H](C(=O)N[C@H](CCSC)C(=O)O)[C@H](C)O)[C@H](C)O` [dTIT7, T[D] I[D] T[D] W[D] P[D] T[D] M[D]]: the Kd in data set [2] (QCM method, dTIT7 and Anxa1, read-out: dissociation constant (Kd value)) was determined as 45.7 nM.

Source of the values: US10695396B2, “Malignant tumor target peptide” (NATIONAL INSTITUTE OF ADVANCED INDUSTRIAL SCIENCE AND …, priority 2016, dated 2020).
